Data: publication PMC2248166, “Quantitative peptide binding motifs for 19 human and mouse MHC class I molecules derived using positional scanning combinatorial peptide libraries” (Immunome Research, 2008)

target: H-2 D^d (Mus musculus, UniProt P01900); assay: not given; type: binding; settings: not given
Sequence (P01900 whole entry, looked up): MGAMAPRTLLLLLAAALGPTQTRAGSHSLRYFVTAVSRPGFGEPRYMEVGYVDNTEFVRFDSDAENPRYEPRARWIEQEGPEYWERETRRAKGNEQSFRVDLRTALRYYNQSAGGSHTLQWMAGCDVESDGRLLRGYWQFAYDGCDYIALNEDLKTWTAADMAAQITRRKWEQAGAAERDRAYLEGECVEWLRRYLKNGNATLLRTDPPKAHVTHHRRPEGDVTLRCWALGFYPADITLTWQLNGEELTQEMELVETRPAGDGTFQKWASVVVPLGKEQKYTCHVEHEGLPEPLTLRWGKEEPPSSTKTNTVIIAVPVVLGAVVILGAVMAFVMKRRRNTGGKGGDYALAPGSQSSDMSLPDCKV

Row | Sequence | Normalized average relative binding affinity (ARB), H-2 Dd
1 | TXXXXXXXX [3064.0017] | 0.25
2 | VXXXXXXXX [3064.0018] | 0.80
3 | WXXXXXXXX [3064.0019] | 1.0
4 | XAXXXXXXX [3064.0021] | 0.025

target: HLA B*5101 (Homo sapiens, UniProt P01889, A329T/A93T/A95T/C349S/D138N/D201E/D98Y/E187L/E204Q/E69T/G107R/I218V/K202T/L105A/L119W/N104I/Q94N/R106L/R155S/R180L/S101N/S121T/S35A/S48A/V306I/V36M/Y195H/Y91F); assay: not given; type: binding; settings: not given

Row | Sequence | Normalized average relative binding affinity (ARB), HLA B*5101
5 | TXXXXXXXX [3064.0017] | 0.089
6 | VXXXXXXXX [3064.0018] | 0.17
7 | WXXXXXXXX [3064.0019] | 0.11
8 | XAXXXXXXX [3064.0021] | 0.54

target: HLA B*5802 (Homo sapiens, UniProt P01889, A329T/C349S/D201E/D98Y/E176V/E187L/E204Q/E69T/G107R/I218V/I90N/K202T/L105A/N104I/N87E/Q89R/Q94S/R106L/R155S/R180L/R86G/S101N/S121W/S35A/S48A/V127L/V306I/V36M/Y140S/Y91M); assay: not given; type: binding; settings: not given

Row | Sequence | Normalized average relative binding affinity (ARB), HLA B*5802
9 | TXXXXXXXX [3064.0017] | 0.062
10 | VXXXXXXXX [3064.0018] | 0.21
11 | WXXXXXXXX [3064.0019] | 0.11
12 | XAXXXXXXX [3064.0021] | 0.035

target: HLA B*5301 (Homo sapiens, UniProt P01889, A329T/A93T/A95T/C349S/D201E/D98Y/E176V/E187L/E204Q/E69T/G107R/I218V/K202T/L105A/L119I/N104I/Q94N/R106L/R155S/R180L/S101N/S121R/S35A/S48A/T118I/V127L/V306I/V36M/Y140S/Y91F); assay: not given; type: binding; settings: not given

Row | Sequence | Normalized average relative binding affinity (ARB), HLA B*5301
13 | TXXXXXXXX [3064.0017] | 0.027
14 | VXXXXXXXX [3064.0018] | 0.018
15 | WXXXXXXXX [3064.0019] | 0.17
16 | XAXXXXXXX [3064.0021] | 0.44

target: HLA B*5401 (Homo sapiens, UniProt P01889, A329T/C349S/D138N/D201E/E176V/E187T/E204Q/E69G/I76V/K202T/L119W/R155S/R180L/S121T/S35A/S48A/V127L/V306I/V36M/Y140L); assay: not given; type: binding; settings: not given

Row | Sequence | Normalized average relative binding affinity (ARB), HLA B*5401
17 | TXXXXXXXX [3064.0017] | 0.026
18 | VXXXXXXXX [3064.0018] | 0.032
19 | WXXXXXXXX [3064.0019] | 0.14
20 | XAXXXXXXX [3064.0021] | 1.0

target: HLA B*0801 (Homo sapiens, UniProt P01889, A93T/A95T/D138N/E176V/E187T/K202T/Q94N/R180D/S35A/V36M/Y33D/Y91F); assay: biochemical; type: binding; settings: not given

Row | Sequence | Normalized average relative binding affinity (ARB), HLA B*0801
21 | TXXXXXXXX [3064.0017] | 0.076
22 | VXXXXXXXX [3064.0018] | 0.047
23 | WXXXXXXXX [3064.0019] | 0.20
24 | XAXXXXXXX [3064.0021] | 0.41

target: HLA B*1501 (Homo sapiens, UniProt P01889, A329T/A93T/A95T/C349S/D201E/D98Y/E187L/E204Q/E69M/E70A/K202T/N87E/Q94N/R155S/R180W/S121R/S35A/S48A/V306I/V36M/Y140S/Y91S); assay: biochemical; type: binding; settings: not given

Row | Sequence | Normalized average relative binding affinity (ARB), HLA B*1501
25 | TXXXXXXXX [3064.0017] | 0.13
26 | VXXXXXXXX [3064.0018] | 0.14
27 | WXXXXXXXX [3064.0019] | 0.44
28 | XAXXXXXXX [3064.0021] | 0.57

target: HLA B*1503 (Homo sapiens, UniProt P01889, A329T/A93T/A95T/C349S/D201E/D98Y/E187L/E204Q/K202T/N87E/Q94N/R155S/R180L/S121R/S35A/V306I/V36M/Y140S/Y91S); assay: biochemical; type: binding; settings: not given

Row | Sequence | Normalized average relative binding affinity (ARB), HLA B*1503
29 | TXXXXXXXX [3064.0017] | 0.14
30 | VXXXXXXXX [3064.0018] | 0.22
31 | WXXXXXXXX [3064.0019] | 0.27
32 | XAXXXXXXX [3064.0021] | 0.13

target: HLA B*2705 (Homo sapiens, UniProt P01889, D138H/D201E/E176V/E204Q/G107R/H137Y/K202T/N104T/N87E/Q56L/Q94K/R106L/R155S/R180L/S101D/S121N/S48T/Y140D/Y33H/Y91C); assay: not given; type: binding; settings: positional scanning combinatorial 9-mer library; normalized to 1.0 for the best residue at each position

Row | Sequence | Normalized average relative binding affinity (ARB), HLA B*2705
33 | TXXXXXXXX [3064.0017] | 0.12
34 | VXXXXXXXX [3064.0018] | 0.16
35 | WXXXXXXXX [3064.0019] | 0.41
36 | XAXXXXXXX [3064.0021] | 0.0054

target: HLA A*3001 (Homo sapiens, UniProt P04439, D140H/D185E/E176W/F33S/G80R/H175R/K168Q/R138E/R41S); assay: biochemical; type: binding; settings: not given

Row | Sequence | Normalized average relative binding affinity (ARB), HLA A*3001
37 | TXXXXXXXX [3064.0017] | 0.050
38 | VXXXXXXXX [3064.0018] | 0.074
39 | WXXXXXXXX [3064.0019] | 0.020
40 | XAXXXXXXX [3064.0021] | 0.89

target: HLA A*6802 (Homo sapiens, UniProt P04439, A269V/D140Y/D185E/E176V/E277Q/E87N/F33Y/G231S/I121R/I166T/I218V/L180W/L300P/L318F/N151K/P208A/P217A/Q86R/R138H/R169H/S129P/T345S/V36M); assay: not given; type: binding; settings: not given

Row | Sequence | Normalized average relative binding affinity (ARB), HLA A*6802
41 | TXXXXXXXX [3064.0017] | 0.29
42 | VXXXXXXXX [3064.0018] | 0.038
43 | WXXXXXXXX [3064.0019] | 0.19
44 | XAXXXXXXX [3064.0021] | 0.12

target: H-2 K^k (Mus musculus, UniProt P04223); assay: not given; type: binding; settings: not given
Sequence (P01887 21-119): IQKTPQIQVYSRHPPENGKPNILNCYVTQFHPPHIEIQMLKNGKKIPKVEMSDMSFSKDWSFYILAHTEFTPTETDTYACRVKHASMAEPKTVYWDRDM
Sequence (P04223 22-369): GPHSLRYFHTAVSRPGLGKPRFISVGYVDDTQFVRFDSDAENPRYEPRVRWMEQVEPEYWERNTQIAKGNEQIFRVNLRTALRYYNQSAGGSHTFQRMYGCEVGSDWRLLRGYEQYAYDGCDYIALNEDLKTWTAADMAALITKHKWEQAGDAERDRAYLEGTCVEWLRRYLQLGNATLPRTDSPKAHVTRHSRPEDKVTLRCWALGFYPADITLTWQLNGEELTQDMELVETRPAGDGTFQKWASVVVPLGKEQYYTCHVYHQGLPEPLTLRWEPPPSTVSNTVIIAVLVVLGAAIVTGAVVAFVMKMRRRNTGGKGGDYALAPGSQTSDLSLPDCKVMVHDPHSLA

Row | Sequence | Normalized average relative binding affinity (ARB), H-2 Kk
45 | TXXXXXXXX [3064.0017] | 0.65
46 | VXXXXXXXX [3064.0018] | 0.13
47 | WXXXXXXXX [3064.0019] | 0.80
48 | XAXXXXXXX [3064.0021] | 0.047

target: HLA A*0201 (Homo sapiens, UniProt P04439, D140Y/D185E/D98H/E176V/E277Q/G131W/G231S/I119V/I121R/I166T/I218V/L300P/L318F/N151K/N90K/P208A/P217A/Q86G/Q94H/R138H/R169H/T345S); assay: not given; settings: positional scanning combinatorial 9-mer library; normalized to 1.0 for the best residue at each position

Row | Sequence | Normalized average relative binding affinity (ARB), HLA A*0201
49 | TXXXXXXXX [3064.0017] | 0.094
50 | VXXXXXXXX [3064.0018] | 0.062
51 | WXXXXXXXX [3064.0019] | 0.057
52 | XAXXXXXXX [3064.0021] | 0.0018

target: HLA B*5801 (Homo sapiens, UniProt P01889, A329T/C349S/D201E/D98Y/E176V/E187L/E204Q/E69T/G107R/I218V/I90N/K202T/L105A/L119I/N104I/N87E/Q89R/Q94S/R106L/R155S/R180L/R86G/S101N/S121R/S35A/S48A/T118I/V127L/V306I/V36M/Y140S/Y91M); assay: not given; type: binding; settings: not given

Row | Sequence | Normalized average relative binding affinity (ARB), HLA B*5801
53 | TXXXXXXXX [3064.0017] | 0.12
54 | VXXXXXXXX [3064.0018] | 0.74
55 | WXXXXXXXX [3064.0019] | 0.29
56 | XAXXXXXXX [3064.0021] | 0.48

target: H-2 D^b (Mus musculus, UniProt P01899); assay: not given; type: binding; settings: not given
Sequence (P01887 21-119): as the sequence (P01887 21-119) above
Sequence (P01899 25-362): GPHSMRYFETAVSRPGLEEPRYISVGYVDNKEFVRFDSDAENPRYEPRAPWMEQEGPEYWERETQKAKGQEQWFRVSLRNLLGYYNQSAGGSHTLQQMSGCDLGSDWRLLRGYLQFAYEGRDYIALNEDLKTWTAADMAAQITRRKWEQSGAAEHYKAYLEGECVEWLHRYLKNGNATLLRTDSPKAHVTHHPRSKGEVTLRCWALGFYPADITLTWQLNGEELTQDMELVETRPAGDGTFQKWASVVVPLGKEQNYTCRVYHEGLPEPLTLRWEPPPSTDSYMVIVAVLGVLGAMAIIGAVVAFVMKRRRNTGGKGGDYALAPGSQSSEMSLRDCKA

Row | Sequence | Normalized average relative binding affinity (ARB), H-2 Db
57 | TXXXXXXXX [3064.0017] | 0.096
58 | VXXXXXXXX [3064.0018] | 0.094
59 | WXXXXXXXX [3064.0019] | 0.16
60 | XAXXXXXXX [3064.0021] | 0.64

target: HLA B*3501 (Homo sapiens, UniProt P01889, A329T/A93T/A95T/C349S/D201E/D98Y/E176V/E187L/E204Q/E69T/I218V/K202T/L119I/Q94N/R155S/R180L/S121R/S35A/S48A/T118I/V127L/V306I/V36M/Y140S/Y91F); assay: not given; type: binding; settings: not given

Row | Sequence | Normalized average relative binding affinity (ARB), HLA B*3501
61 | TXXXXXXXX [3064.0017] | 0.14
62 | VXXXXXXXX [3064.0018] | 0.11
63 | WXXXXXXXX [3064.0019] | 0.23
64 | XAXXXXXXX [3064.0021] | 0.88

target: HLA B*0702 (Homo sapiens, UniProt P01889); assay: not given; type: binding; settings: positional scanning combinatorial 9-mer library; normalized to 1.0 for the best residue at each position

Row | Sequence | Normalized average relative binding affinity (ARB), HLA B*0702
65 | TXXXXXXXX [3064.0017] | 0.12
66 | VXXXXXXXX [3064.0018] | 0.14
67 | WXXXXXXXX [3064.0019] | 0.25
68 | XAXXXXXXX [3064.0021] | 0.086

target: HLA A*3201 (Homo sapiens, UniProt P04439, A270S/D101S/D185E/E176V/E277Q/F133L/G103R/G107R/G231S/H175R/I121M/I218V/I322F/K168Q/L105A/L300P/L318F/M331R/P208A/P217A/Q94H/R106L/R138Q/S129P/T104I/T323A/T345S/V100E/V321M/V358M); assay: biochemical; type: binding; settings: not given

Row | Sequence | Normalized average relative binding affinity (ARB), HLA A*3201
69 | TXXXXXXXX [3064.0017] | 0.11
70 | VXXXXXXXX [3064.0018] | 0.28
71 | WXXXXXXXX [3064.0019] | 0.059
72 | XAXXXXXXX [3064.0021] | 0.11
